Data published in patent publication US20100130581A1, “COMPOUNDS AND METHODS FOR THE TREATMENT OF PAIN” (THE UNIVERSITY OF QUEENSLAND, priority 2006, published 2010).
Where a SMILES comes first, the peptide text is derived from it. [ ]: non-standard residue; d: D form. ξ: configuration not given here. ξAoc(2) = CCCCCCC(N)C(=O)O

What was measured:
[1] = Plasma stability assay; format: in vitro ADME; conditions: male, human, plasma at 37° C.
Experimental: To measure the enzymatic stability of endomorphin-1 analogs in plasma, blood was taken from a healthy volunteer and the blood was centrifuged at 1700 rpm for 30 minutes to remove blood cells. The plasma was placed into a water bath heated at 37° C. and Endomorphin-1 and analog was added to give final concentrations of 0.7 mg/mL. Samples were incubated for varying time periods between 0 and 180 minutes. 50 μL of sample was taken at each time-point and 75 μL of acetonitrile was added to quench any enzyme activity. The samples were then placed on ice and upon completion of the assay, all samples were centrifuged at 9000 rpm for 3 minutes to remove all precipitated plasma proteins. The amount of intact peptide remaining in the supernatent of each sample was determined using RP HPLC by measuring the area under the curve of the peak at the appropriate retention time compared to a standard curve of concentration for each peptide (see FIG. 8).

[2] = test system: μ- and δ-opioid receptors; assay: Cell based assay of cAMP inhibition in forskolin treated SH-SY5Y cells; conditions: for Inhibit c-AMP (%): SH-SY5Y cell line, normalised to the % of cAMP inhibition seen by native endomorphin-1
Experimental: SH-SY5Y cells endogenously expressing μ- and δ-opioid receptors were cultured (100 μl) in a 96 well-plate and incubated (usually overnight) until 80% confluent. Once cells were ready for assay, Endo-1, Endo-2 and derivatives/analogs were diluted in DMEM culture medium containing 30 μM forskolin. The diluted derivatised endomorphins or derivatised endomorphin analogs were then applied to separate wells for agonist studies and co-incubated for antagonist studies. Cells were incubated with derivatised endomorphins or derivatised endomorphin analogs at 37° C. for 30 minutes, medium was aspirated and cells were lysed using lysis buffer from a cAMP Biotrak EIA kit (Amersham, Buckinghamshire, UK). An anti-cAMP antibody was added to the lysate, and the mixture incubated at 4° C. for 2 hours followed by the addition of a cAMP peroxidase conjugate, and incubated at 4° C. for a further hour. A 3,3′5,5′-tetramethylbenzidine (TMB) substrate provided by the Biotrak EIA kit was then incubated with cell lysate for 1 hour and finally 1 […] was added to facilitate a colour change, which is proportional to the amount of cAMP captured. A cAMP standard curve from 0 to 3200 fmol was also generated concurrently. Plates were then read by a plate reader at 450 nm and compared back to the cAMP standard curve. All data are compared to the maximum cAMP response to forskolin and are represented as the mean+/−standard error of three experiments performed in triplicate. All data are plotted using PRISM program (GraphPad, San Diego, Calif.) (see FIGS. 2a and 2b).

[3] = molecular target: T1, μ-opioid receptor (Homo sapiens, UniProt P35372); assay: Whole cell-based binding assay, displacement of 3H-DAMGO
T1 construct: SH-SY5Y cells endogenously expressing μ- and δ-opioid receptors; endogenous in cells; host or cells: SH-SY5Y cells
Experimental: Media was removed and cells were washed with PBS before pre-incubation in 300 μL of binding buffer. Binding studies were performed with 100 μL of appropriate concentrations of ^3H-labeled DAMGO (a selective μ-opioid receptor agonist) and 100 μL of competitor or blank in binding buffer at 37° C. for 60 min. Competition binding experiments were performed using […] of ^3H-labelled DAMGO in the absence or presence of increasing concentrations of unlabeled derivatised endomorphins or derivatised endomorphin analogs. A 1 μM excess of unlabelled DAMGO was used to determine non-specific binding. Following incubation, the cells were washed with PBS and recovered from culture plates using 500 μL of […] before transfer to scintillation vials. Liquid scintillation cocktail (Ultima Gold, Packard, Meriden, USA) was added to these vials for counting in a liquid scintillation analyser. Data are expressed as the mean±SEM of % specific binding of triplicate determinations performed on at least three independent plates of cells. Data were plotted using the one-site competition functions of the PRISM program (Graphpad Inc., San Diego, USA) (see FIGS. 1a, 1b and 7).

[4] = Enzymatic stability study in homogenized Caco-2 cells; format: in vitro ADME; conditions: human, pH 7.4; Caco-2 cell homogenate, 37° C., 100 μM
Experimental: (§1) Approximately 1×10^5 cells/mL concentration of cells were seeded onto the 96 well plate. […] The media was changed every other day. 21-28 days old cells were used for the experiments. the media was removed from the wells and each well washed with 100 μL 0.2% EDTA solution followed by washing three times with Hanks' balanced salt solution (HBSS) containing 25 mM Hepes (pH 7.4). Finally, 100 μL of this buffer was placed in each well and the plate cooled in ice. The monolayer of cells in each well was then disrupted by 2×1 second pulses with a Sonics Vibracell ultrasonic processor set at an amplitude of 30. The cell debris was then removed by centrifugation of the plate at 2000 rpm for 5 min. 80 μL cell homogenate supernatant of each well was then transferred to a clean 96 well plate, and 20 μL of HBSS-Hepes was added. Three of the wells' contents were set aside and assayed for total protein content using the Lowry assay. The compounds to be tested were dissolved in HBSS-Hepes buffer to a concentration of 200 μM.
(§2) This assay was performed at 37° C. […] The stability assay on each compound was conducted in triplicate and the concentrations averaged for each time point.

[5] = test system: homogenate of Caco-2 cells; assay: as above; format: in vitro ADME; conditions: Caco-2 cell line; graded by number of ♦ (up to 5), key not given
Experimental: as §1, §2

[6] = test system: Caco-2 cells; assay: Caco-2 permeability study
Experimental: Approximately 1×10^6 cells/mL concentration of cells were seeded onto polycarbonate cell culture inserts (Transwell®; 0.45 μm×6.5 mm diameter). DMEM cell culture media was supplemented with 10% FBS, 1% L-glutamine, 1% nonessential amino acids and 1% 100 U/mL penicillin/streptomycin. The media was changed every other day (0.6 mL in the basolateral chamber and 0.1 mL to the apical chamber) and the monolayers were used between days 21-28. Transepithelial electrical resistance (TEER) of the monolayer was measured using the Millicell-ERS system (Millipore Corporation, Bedford, Mass.). C^14-mannitol permeability was used to monitor the integrity of the Caco-2 monolayers.
Prior to beginning the experiments, the monolayers were washed with pre-warmed HBSS-Hepes buffer, incubated for 30 min. At the start of the experiment the apical chamber was emptied and 100 μL of either the derivatised endomorphin or derivatised endomorphin analog solution was added. The permeability study was performed in triplicate at 37° C. shaking in a Heridolf Titramax shaking at 400 rpm. […] Permeability coefficients (Papp) were calculated from data generated by LC/MS quantitative analysis of all samples using a gradient HPLC system (Shimadzu LC-10AT system) coupled to a triple quadrupole mass spectrometer (PE Sciex API 3000) operating in SIM mode with positive ion electrospray. The mobile phase was a mixture of solvent A (0.1% formic acid in water) and solvent B (0.1% formic acid in 90% acetonitrile/water). A C18 column, 5 μM, 50×2.0 mm (Phenomex®) was used at a flow rate 0.3 mL/min with a gradient from 100% A to 90% B in 7 minutes, incorporating a splitter (1:10).
The permeability of the sugars themselves was also examined.

[7] = In vivo biodistribution of 3H-labelled peptide, intravenous; set-up: species or system rat; conditions: rats, i.v.
Experimental: FIG. 5(a)-(c) are graphical representations showing in vivo bio-distribution of 1 in rats. […] After 15, 30 and 60 minutes, 5 rats were sacrificed and the brain FIG. 5(a), liver FIG. 5(b) and blood FIG. 5(c) of each rat were removed following intravenous administration. The organs were subsequently homogenised in buffer and a sample removed and placed in tissue solubiliser for 3 days. After this time a small sample was removed and treated with bleach over night to remove any colour from the solution and the resulting sample dissolved in scintillation fluid and the radioactivity measured by liquid scintillation. […] The apparent increase in blood levels of the parent peptide after 60 minutes is likely due to the breakdown of the compound and release of the radiolabeled acetate into the blood stream.

[8] = In vivo biodistribution of 3H-labelled peptide, oral; set-up: species or system rat; conditions: rats, oral administration
Experimental: After 15, 30 and 60 minutes, 5 rats were sacrificed and the brain, liver, blood, kidneys, stomach, spleen, small intestine and large intestine were removed following oral administration. The organs were subsequently homogenised in buffer and a sample removed and placed in tissue solubiliser for 3 days. After this time a small sample was removed and treated with bleach over night to remove any colour from the solution and the resulting sample dissolved in scintillation fluid and the radioactivity measured by liquid scintillation.

[9] = Blood plasma concentration after oral gavage; format: in vivo, rat; conditions: male rats
Experimental: In another experiment, Lac-endo was fed via oral gavage to male rats and the concentration of the compound in blood plasma measured over time. Sprague-dawley rats (average wt 300 g) were gavaged with 500 μL of a 20 mM Lac-endo or Endomorphin solution in water. Blood samples taken from the tail vein after 30, 60 and 90 min. The blood was centrifuged to remove red blood cells, and in a 100 μL sample of plasma was added to 300 μL of acetonitrile to precipitate proteins. The suspension was centrifuged a second time and the supernatant analysed by LC-MS.

T1 sequence (P35372 whole entry): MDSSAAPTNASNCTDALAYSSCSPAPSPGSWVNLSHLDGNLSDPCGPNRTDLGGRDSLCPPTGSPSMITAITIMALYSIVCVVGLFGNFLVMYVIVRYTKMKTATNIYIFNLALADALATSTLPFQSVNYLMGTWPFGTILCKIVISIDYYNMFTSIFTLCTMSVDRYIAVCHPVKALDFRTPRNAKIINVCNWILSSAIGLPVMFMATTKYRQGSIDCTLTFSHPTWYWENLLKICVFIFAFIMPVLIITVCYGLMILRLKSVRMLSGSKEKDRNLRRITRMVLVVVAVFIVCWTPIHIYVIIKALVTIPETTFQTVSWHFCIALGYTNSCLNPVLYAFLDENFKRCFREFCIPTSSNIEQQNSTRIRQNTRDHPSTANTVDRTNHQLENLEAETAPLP

## Cc1cc(O)cc(C)c1C[C@H](N)C(=O)N1CCC[C@H]1C(=O)N[C@@H](Cc1c[nH]c2ccccc12)C(=O)N[C@@H](Cc1ccccc1)C(N)=O [(Dmt^1)Endo, reference compound]
[1]
  half-life at 0.7 mg/mL: 4.18 min
[2]; Efficacy SH-SY5Y cell line
  IC50: 0.156 nM
[2]
  Inhibit c-AMP (%): 160%
[3]
  Ki: 0.058 nM
[4]
  half-life at 100 μM: 8.98 min
[5]
  Enzymatic stability 2 h: ♦

## CCCCCCC(N)C(=O)N[C@@H](Cc1ccc(O)cc1)C(=O)N1CCC[C@H]1C(=O)N[C@@H](Cc1c[nH]c2ccccc12)C(=O)N[C@@H](Cc1ccccc1)C(N)=O (stereo partly shown) [Compound 1] (H-[ξAoc(2)]YPWF-NH2)
[2]
  Inhibit c-AMP (%): 97%
[3]
  Ki: 2.45 nM
[3]; displacement of 3H-DAMGO, FIG. 1
  Ki / binding affinity, in words: low nanomolar range
[6]; Caco-2 cell monolayers, compared to parent peptide
  apparent permeability (Papp), in words: significantly improved apparent permeability compared to the parent peptide
[4]
  half-life: 25.5 min
[7]
  accumulation in the liver, in words: accumulate less in the liver than the parent peptide
[7]; after 15 minutes
  label appearing in the brain: > 10%
[8]
  delivery to the brain, in words: evidence of delivery of the peptide to the brain
[8]; over the time of the experiment
  increase in serum levels compared to the native peptide: 6 fold

## NC(=O)[C@H](Cc1ccccc1)NC(=O)[C@H](Cc1c[nH]c2ccccc12)NC(=O)[C@@H]1CCCN1C(=O)[C@H](Cc1ccc(O)cc1)NC(=O)CCC(=O)N[C@@H]1O[C@H](CO)[C@@H](O[C@@H]2O[C@H](CO)[C@H](O)[C@H](O)[C@H]2O)[C@H](O)[C@H]1O [Compound 12]
[6]; Caco-2 monolayers, 20 mM galactose
  absorption of Lac-endo in presence of galactose: some inhibition of absorption but less than lactose
[6]; Caco-2 monolayers, 20 mM glucose
  absorption of Lac-endo in presence of glucose: doesn't inhibit the absorption
[6]; Caco-2 monolayers, 20 mM lactose
  absorption of Lac-endo in presence of lactose: severely inhibits the absorption
[9]; Sprague-Dawley, rat, plasma, 10 µmol/rat, read-out: time of highest recorded concentration in blood (converted)
  Tmax: 60 min
[9]; 500 μL of 20 mM solution
  absorption across the GI tract, in words: significant absorption of the compound across the GI tract

## NC(=O)[C@H]1O[C@@H](NC(=O)[C@H](Cc2ccccc2)NC(=O)[C@H](Cc2c[nH]c3ccccc23)NC(=O)[C@@H]2CCCN2C(=O)[C@@H](N)Cc2ccc(O)cc2)[C@H](O)[C@@H](O)[C@@H]1O [Compound 18]
[6]; Caco-2 cell line, graded by number of ♦ (up to 5), key not given
  Permeability: ♦
[5]
  Enzymatic stability 2 h: ♦
